Results from US5260330A, “Substituted anilides” (BASF Aktiengesellschaft, priority 1990, dated 1993).
Where a name gives a salt, the structure may show the parent alone.

Test system: guinea pig hearts
Test: ECG measurement of QT interval prolongation in isolated guinea pig hearts (Langendorff perfusion)
Design: species or system guinea pig (male Duncin-Hartley)
Conditions: for EC20: Cavia porcellus, 0.25 h, isolated guinea pig heart, Langendorff perfusion, 37° C, cumulative administration at 15 min intervals into the perfusate, ED20% by linear regression of log dose, read-out: ED20% (dose at which there is a 20% increase in the QT interval from the initial figure); for Relative effect ED20% (D-sotalol)/ED20% (Ex.): ratio relative to D-sotalol, QT interval, guinea pig heart
From the text: In these the cardiac cycle is divided into systole (contraction of the heart), also called QT interval, and diastole (relaxation of the heart with filling of the ventricles). Repolarization inhibitors increase the QT interval with a negligible effect on the atrioventricular conduction time (PQ interval) and the period of isometric contraction (QRS time, from the start of systole until the semilunar valves open) (see Pschyrembel, 254th edition, 1982).
The activity of the compounds according to the invention as repolarization inhibitors can be investigated in animal experiments by ECG measurements on, for example, guinea pig hearts (see Basic Res. Cardiol. 82 (1987) 437; J. Pharmacol. Methods 21 (1989) 195). Used to compare the activities of a number of substances is, for example, the dose of an agent at which there is a 20% increase in the QT interval from the initial figure (ED20%).This is done by plotting the logarithm of the doses of the particular substances against the experimentally found relative changes in the QT interval, and using linear regression to determine the equation of a straight line from which the ED20% can be calculated.
This method was used to determine the ED20% values for the compounds of Examples 2 and 3 (see Table). D-sotalol was used as comparative substance.
The experimental animals were male Duncin-Hartley guinea pigs with a body weight of 300 to 350 g. 30 min after administration of 1250 I.U. of heparin/kg of body weight into the abdominal cavity, the animals were sacrificed by a blow to the back of the neck. After the common carotid arteries had been cut for exsanguination, the thoracic cavity was opened, and the heart was dissected out and attached to a perfusion apparatus. The Langendorff perfusion was carried out with Krebs-Henseleit solution (NaCl 6896 mg/l; KCl 350 mg/l; MgSO4 285 mg/l; CaCl2 370 mg/l; KH2 PO4 161 mg/l; NaHCO3 2090 mg/l; glucose 2000 mg/l) enriched with oxygen and heated to 37° C. The perfusion volume per unit time was adjusted to 4 to 6 ml/min for a total volume of 100 ml, and the perfusion pressure was adjusted to 60 to 70 mm Hg. Circulating perfusion was carried out after equilibration for 30 min.
The ECG measurements were made via two silver electrodes attached to the surface of the heart in the upper region of the left coronary artery and on the rear of the heart at the level of the valve plane. The PQ and QT intervals, the QRS time and the heart rate were measured.
The substance was administered cumulatively at intervals of 15 min into the perfusate.

Structure (SMILES) | EC20 [nM] | Relative effect ED20% (D-sotalol)/ED20% (Ex.)
CC(C)NCC(O)c1ccc(NS(C)(=O)=O)cc1 [D-sotalol, 4'-[1-hydroxy-2-(isopropylamino)ethyl]methanesulfonanilide, reference compound] | 16000 | –
Cc1ccccc1C=CC(=O)Nc1cc(C)c(OCCN2CCCC2)c(C)c1 [Example 2, [3',5'-Dimethyl-4'-(2-(N-pyrrolidinyl)ethoxy)]-(2-methylphenyl)acrylanilidefumarate] | 500 | 32
Cc1ccccc1CCC(=O)Nc1cc(C)c(OCCN2CCCC2)c(C)c1 [Example 3, [3',5'-Dimethyl-4'-(2-(N-pyrrolidinyl)ethoxy)]-3-(2-methylphenyl)propionanilide fumarate] | 310 | 51
